Test results taken from patent publication US5859030A, “Substituted arylalkylthioalkylthiopyridines for use in the control of helicobacter bacteria” (BYK Gulden Lomberg Chemische Fabrik GmbH, priority 1994, dated 1999).
In brackets after ≈: the same amount, converted by molar mass. Counter-ions that a name gives are not always drawn.

system: Helicobacter pylori; test: Activity against Helicobacter pylori (agar growth inhibition, methodology of Iwahi et al.); assay type: cell-based; details: 96 h, Columbia agar (Oxoid), growth period of 4 days, read-out: approx. MIC50
Excerpt: The compounds of the formula I were investigated regarding their activity against Helicobacter pylori following the methodology described by Tomoyuki Iwahi et al. (Antimicrobial Agents and Chemotherapy, 1991, 490-496) using Columbia agar (Oxoid) and with a growth period of 4 days. The approx. MIC 50 values listed in the following Table A resulted here for the compounds investigated (the numbers of the compounds given agree with the example numbers in the description).

Structure (SMILES) | MIC50 [µg/mL]
Cc1c(SCCCSCc2ccco2)ccnc1CSc1nc2ccccc2[nH]1 [Compound 5, 2-{[[4-[(6-Furan-2-yl)-1,5-dithiahex-1-yl]-3-methyl-2-pyridinyl]methyl]thio}-1 H-benzimidazole] | ~0.05 (≈ 0.113 µM)
Cc1c(SCCCCOc2ccccc2)ccnc1CSc1nc2ccccc2[nH]1 [Compound 2] | ~0.1 (≈ 0.23 µM)
Cc1c(SCCCSC(=S)N(C)C)ccnc1CSc1nc2ccccc2[nH]1 [Compound 4, 2-{[[4-[3-Dimethvldithiocarbamoylpropylthio]-3-methyl-2-pyridinyl]methyl]thio}1 H-benzimidazole] | ~0.05 (≈ 0.111 µM)
Cc1c(SCCOc2ccccc2)ccnc1CSc1nc2ccccc2[nH]1 [Compound 1] | ~0.05 (≈ 0.123 µM)
Cc1c(SCCCSc2nc3ccccc3o2)ccnc1CSc1nc2ccccc2[nH]1 [Compound 11, 2-{[[4-[(5-Benzoxazol-2-yl)-1,5-dithiapent-1-yl]-3-methyl-2-pyridinyl]methyl]thio}1 H-benzimidazole] | ~0.1 (≈ 0.209 µM)

Continued by falling MIC50, values first:

MIC50 [µg/mL] | Structure (SMILES)
~0.1 (≈ 0.227 µM) | Cc1c(SCCCSc2ccncc2)ccnc1CSc1nc2cccnc2[nH]1 [Compound 14]
~0.1 (≈ 0.202 µM) | Cc1c(SCCCSc2nc3ccccc3s2)ccnc1CSc1nc2ccccc2[nH]1 [Compound 10, 2-{[[4-[(5-Benzothiazol-2-yl)-1,5-dithiapent-1-yl]-3-methyl-2-pyridinyl]methyl]thio}-1 H-benzimidazole]
~0.05 | Cc1scnc1CCSCCCSc1ccnc(CSc2nc3ccccc3[nH]2)c1C.Cl.Cl.Cl [Compound 7, 2-{[[3-Methyl-4-[7-(5-methylthiazol-4-yl)-1,5 dithiahept-1-yl]-2-pyridinyl]methyl]thio}-1 H-benzimidazole trihydrochloride]
~0.05 (≈ 0.111 µM) | Cc1ccc(CSCCSc2ccnc(CSc3nc4ccccc4[nH]3)c2C)cc1 [Compound 3, 2-{[[3-Methyl-4-[5-(4-methylphenyl)-1,4-dithia-pent-1-yl]-2-pvridinyl]methyl]thio}-1 H-benzimidazole]
~0.05 | Cc1c(SCCCSCc2ccc(CN(C)C)o2)ccnc1CSc1nc2ccccc2[nH]1 [Compound 6, trihydrochloride]
